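Method: 48-hour compound exposure of cells in 96-well plates, five concentrations, linear interpolation of endpoints. GI50: concentration for 50% inhibition of growth. The concentration for full growth arrest is given as TGI.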
What was measured:
Assay in all cases: NCI-60 cell line screen, 48 h
NCI-H522 lung = tested on: NCI-H522 lung
SK-OV-3 ovarian = tested on: SK-OV-3 ovarian
HOP-62 NSCLC = tested on: HOP-62 NSCLC
786-0 renal = tested on: 786-0 renal
UACC-257 melanoma = tested on: UACC-257 melanoma
T-47D breast = tested on: T-47D breast
HCT-15 colon = tested on: HCT-15 colon
CCRF-CEM leukemia = tested on: CCRF-CEM leukemia
SN12C renal = tested on: SN12C renal
SNB-75 CNS = tested on: SNB-75 CNS

Row | Compound | GI50 (NCI-H522 lung) [µM] | TGI (NCI-H522 lung) [µM] | GI50 (SK-OV-3 ovarian) [µM] | TGI (SK-OV-3 ovarian) [µM] | GI50 (HOP-62 NSCLC) [µM] | TGI (HOP-62 NSCLC) [µM] | GI50 (786-0 renal) [µM] | TGI (786-0 renal) [µM] | GI50 (UACC-257 melanoma) [µM] | TGI (UACC-257 melanoma) [µM] | GI50 (T-47D breast) [µM] | TGI (T-47D breast) [µM] | GI50 (HCT-15 colon) [µM] | TGI (HCT-15 colon) [µM] | GI50 (CCRF-CEM leukemia) [µM] | TGI (CCRF-CEM leukemia) [µM] | GI50 (SN12C renal) [µM] | TGI (SN12C renal) [µM] | GI50 (SNB-75 CNS) [µM] | TGI (SNB-75 CNS) [µM]
1 | Cc1cc(O)c(C2=NN(c3ccc(S(N)(=O)=O)cc3)C(c3ccccc3Cl)C2)cc1Cl (stereo not drawn) | 1.89 | 3.97 | 3.63 | 10.4 | 2.03 | 4.16 | 2.25 | 4.52 | 11.8 | 79.6 | 2.81 | 10.3 | 3.69 | 16.6 | 4.81 | > 100 | 2.55 | 6.32 | 2.23 | 8.83
2 | O=C(O)c1cc2ccc3ccccc3c2oc1=O |  | > 100 |  | > 100 |  | > 100 |  | > 100 |  | > 100 |  | > 100 |  | > 100 |  | > 100 |  | > 100 |  | > 100
3 | CC1OC(OC2C[C@](O)(C(=O)CF)Cc3c(O)c4c(c(O)c32)C(=O)c2ccccc2C4=O)CC(N)C1O (stereo partly drawn) |  | 0.104 |  | 1.04 |  | 0.0462 |  | 0.173 |  | 1.21 |  | 0.151 |  | 0.514 |  | 0.0133 |  | 0.338 |  | 0.09
4 | COc1ccc(/C=C/C(=O)c2ccc(O)c(CN3CCN(c4cc5c(cc4F)c(=O)c(C(=O)O)cn5C4CC4)CC3)c2)cc1 | 1.98 | 28.7 | 2.56 | 43.2 | 1.97 | > 100 | 0.854 | > 100 | 2.17 | 69.9 | 1.83 | > 100 | 2.22 | > 100 | 0.805 | > 100 |  |  | 0.726 | 6.86
5 | COc1ccc(-c2nc(-c3ccccc3)c(-c3ccccc3)[nH]2)cc1OC1CCCC1 | 6.11 | > 100 | > 100 | > 100 | > 100 | > 100 | > 100 | > 100 | > 100 | > 100 | 34.9 | > 100 | 13.2 | > 100 | 51.8 | > 100 | > 100 | > 100 | > 100 | > 100
6 | CCCCC[C@H]1C/C=C2/C(=O)C=C[C@@H]2C/C=C\CCCC(=O)O[C@@H](CCCCC)C/C=C2/C(=O)C=C[C@@H]2C/C=C\CCCC(=O)O1 | 0.16 | 0.655 | 0.824 | 2.39 | 0.536 | 1.29 | 0.41 | 0.811 | 0.531 | 1.3 | 0.236 | 0.819 | 0.428 | 1.01 | 0.082 | 1.42 | 0.105 | 0.796 | 0.552 | 2.4
7 | NC(=O)c1ccc(I)c(N=O)c1 | 21.4 | 55.3 | > 100 | > 100 | 57.6 | > 100 | 61.8 | > 100 | 35.3 | > 100 | 32.3 | 87.8 | 30 | > 100 | 40.5 | > 100 | 55.8 | > 100 | 19.9 | 69.4
8 | O=C(Nc1cccc(-n2cc(-c3ccncc3)c(-c3ccc(Cl)c(O)c3)n2)c1)c1ccc(N2CCOCC2)c(C(F)(F)F)c1 | 2.31 | 44 | 20 | > 50 | 9.38 | > 50 | 2.83 | 12.5 | 6.3 | 36.8 | 35.9 | > 50 | 1.81 | 25.3 | 1.82 | > 50 | 22 | > 50 | 1.3 | > 50
9 | CNC(=O)c1cccc2cc(Oc3ccnc4cc(OCC5(N)CC5)c(OC)cc34)ccc12 | 8.94 | 25.6 | 12.1 | 26.3 | 10.7 | 27.6 | 2.82 | 10.1 | 16.5 | 32.2 | 17.8 | 39.2 | 6.56 | 20.2 | 4.78 | 29.7 | 6.01 | 24.1 | 0.76 | 15.5
10 | OCC(O)C(Cl)CCl (stereo not drawn) |  | > 100 |  | > 100 |  | > 100 |  | > 100 |  | > 100 |  | > 100 |  | > 100 |  | > 100 |  | > 100 |  | > 100
11 | O=C(N/C(=C/c1ccc(Cl)cc1Cl)c1nc2ccccc2s1)c1ccccc1 |  | 24.7 |  | 79.3 |  | 26.7 |  | 35.4 |  | 31.6 |  | 43.3 |  | 13.3 |  | > 100 |  | 23 |  | 34.4
12 | CNCCCn1c2c(c3ccc([N+](=O)[O-])cc3c1=O)C(=O)c1cc(OC)cnc1-2 | 0.0838 | 0.464 | 0.0568 | 0.351 | 0.03 | 0.139 | 0.0362 | 0.189 | 0.175 | 0.953 | 0.0309 | 0.283 | 0.119 | 0.714 | 0.0365 | 0.625 | 0.0461 | 1.2 | 0.134 | 2.46
13 | COC(=O)c1ccccc1OCc1cc(=O)oc2ccc(C)cc12 |  | 48.6 |  | > 100 |  | > 57.5 |  | > 100 |  | > 100 |  | > 100 |  | > 100 |  | > 100 |  | > 100 |  | 45.5
14 | O=C(O)C1OC1(c1cccc(Cl)c1)c1ccccc1Cl (stereo not drawn) |  | 65 |  | 66.8 |  | 61.3 |  | > 100 |  | 70.6 |  | > 100 |  | 22.9 |  | 53.3 |  | 56.3 |  | 57.6
15 | CC1(N)CCN(c2cccnc2NC(=O)c2nc(-c3ncccc3C(F)(F)F)cnc2N)CC1 | 15.1 | 47.9 | 7.86 | 73.8 | 37.5 | > 100 | 15.3 | > 100 | 18.1 | 34.1 | 17.5 | 48.3 | 25.1 | > 100 | 26.9 | > 100 | 16.2 | > 100 | 18.9 | > 100

Reference: PubChem BioAssay (NCI)
